Results as given in BindingDB's records for patent US20250282798 (Medshine Discovery, 2025).

Molecular target: Mitogen-activated protein kinase kinase kinase kinase 1 (Homo sapiens, UniProt Q92918)
Assay: Kinase Activity Assay
Method: The compound was diluted 50-fold into the kinase reaction buffer, and the mixture was shaken on a shaker for 20 minutes. The kinase was prepared with the enzyme reaction buffer. 2 μL of kinase was added to each well of a reaction plate. 1 μL of the diluted compound in the buffer was added to each well. The plate was sealed with a sealing film, centrifuged at 1000 g for 30 seconds, and placed at room temperature for 10 minutes. The mixed solution of ATP/MBP was prepared with the enzyme reaction buffer. 2 μL of the mixed solution of ATP/MBP was added to the reaction plate. The plate was sealed with a sealing film, and centrifuged at 1000 g for 30 seconds. The mixture in the plate was reacted at room temperature for 60 minutes. […] The plate was incubated at 25° C. for 40 min. […] The plate was incubated at 25° C. for 40 min. The RLU (relative luminescence unit) signal was read with a BMG microplate reader, and the signal intensity was used to characterize the activity of the kinase.

Chain of Mitogen-activated protein kinase kinase kinase kinase 1 (Q92918 whole entry): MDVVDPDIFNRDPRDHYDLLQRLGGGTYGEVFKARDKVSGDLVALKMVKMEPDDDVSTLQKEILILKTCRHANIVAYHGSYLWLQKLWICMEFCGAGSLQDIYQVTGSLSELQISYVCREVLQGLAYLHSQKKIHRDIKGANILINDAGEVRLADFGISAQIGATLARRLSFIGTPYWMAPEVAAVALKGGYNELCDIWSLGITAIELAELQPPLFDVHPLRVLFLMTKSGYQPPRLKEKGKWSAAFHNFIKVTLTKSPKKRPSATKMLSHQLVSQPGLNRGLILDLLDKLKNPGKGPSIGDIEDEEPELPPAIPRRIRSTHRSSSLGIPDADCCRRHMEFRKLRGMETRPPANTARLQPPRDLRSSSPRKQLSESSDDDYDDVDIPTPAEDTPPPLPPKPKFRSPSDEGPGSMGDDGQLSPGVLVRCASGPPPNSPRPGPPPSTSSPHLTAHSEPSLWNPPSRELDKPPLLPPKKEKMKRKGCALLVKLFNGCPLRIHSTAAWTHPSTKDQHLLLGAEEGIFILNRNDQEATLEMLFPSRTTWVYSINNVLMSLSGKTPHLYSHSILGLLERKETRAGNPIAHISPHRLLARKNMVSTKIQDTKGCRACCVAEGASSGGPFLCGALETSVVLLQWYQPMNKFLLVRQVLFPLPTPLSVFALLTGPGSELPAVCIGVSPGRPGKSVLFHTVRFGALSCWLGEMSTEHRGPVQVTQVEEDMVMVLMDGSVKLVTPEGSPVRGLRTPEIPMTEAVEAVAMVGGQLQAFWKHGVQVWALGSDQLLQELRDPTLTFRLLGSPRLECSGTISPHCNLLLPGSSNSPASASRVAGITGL

Work on `Cn1ccc2c(-c3ccc(Nc4ccc5c(n4)CNC(=O)C4COCC54)c4c3CNC4=O)ccnc21` (configuration not stated) [US20250282798, Compound 23] yielded an IC50 of 0.02 nM.
For `CN1Cc2nc(Nc3ccc(-c4ccnc5c4ccn5C)c4c3C(=O)NC4)ccc2N2CCOCC2C1` (configuration not stated) [US20250282798, Compound 25], the IC50 was 0.2 nM.
`Cn1ccc2c(-c3ncc(Nc4ccc5c(n4)OC[C@H]4COCCN54)c4c3CNC4=O)ccnc21` [US20250282798, Compound 20] was tested, and the IC50 was 0.3 nM.
Compound `CN1Cc2nc(Nc3ccc(-c4cnc5cc(F)ccn45)c4c3C(=O)NC4)ccc2N2CCOCC2C1` (configuration not stated) [US20250282798, Compound 16] has an IC50 of 0.8 nM.
`CN1Cc2nc(Nc3ccc(-c4cnc5cc(F)ccn45)c4c3C(=O)NC4)ccc2C2COCC2C1` (configuration not stated) [US20250282798, Compound 17] was tested, and the IC50 was 1.3 nM.
`O=C1NCc2c(-c3cnc4cc(F)ccn34)ccc(Nc3ccc4c(n3)CNC(=O)C3COCC43)c21` (configuration not stated) [US20250282798, Compound 18] was tested, and the IC50 was 0.2 nM.
Work on `COc1cccc(F)c1-c1ccc(Nc2ccc(N3CCOCC3)c(CN(C)C)n2)c2c1CNC2=O` [US20250282798, Compound 15] yielded an IC50 of 1.7 nM.
